Experimental findings from ChEMBL document CHEMBL1125999 (Bioorg Med Chem Lett, 1991) are described below.

Where only a bound is given, the exact number is not on record here.

For one data set, the target named is D(1A) dopamine receptor (Bos taurus, UniProt Q95136). The experiment in a line: In vitro binding affinity towards Dopamine D1 receptor using [3H]-SCH- 23390 as radioligand.
A further data set has as its target D(2) dopamine receptor (Bos taurus, UniProt P20288). The data set is described as follows: In vitro binding affinity towards Dopamine D2 receptor using [3H]spiperone as radioligand.
Data set [1] can be described thus: Dissociation constant was evaluated. The class given is physicochemical.

Chain of D(1A) dopamine receptor (Q95136 whole entry): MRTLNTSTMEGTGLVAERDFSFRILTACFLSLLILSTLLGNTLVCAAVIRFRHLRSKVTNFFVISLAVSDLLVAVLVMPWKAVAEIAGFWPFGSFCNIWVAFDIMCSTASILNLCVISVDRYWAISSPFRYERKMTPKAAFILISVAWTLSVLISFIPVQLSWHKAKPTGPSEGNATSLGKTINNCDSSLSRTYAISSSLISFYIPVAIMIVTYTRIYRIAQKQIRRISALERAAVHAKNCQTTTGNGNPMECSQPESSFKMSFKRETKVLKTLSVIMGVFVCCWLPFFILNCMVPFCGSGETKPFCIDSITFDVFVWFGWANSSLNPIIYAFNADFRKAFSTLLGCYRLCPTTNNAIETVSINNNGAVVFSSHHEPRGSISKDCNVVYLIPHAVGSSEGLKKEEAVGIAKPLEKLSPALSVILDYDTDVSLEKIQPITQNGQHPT
Chain of D(2) dopamine receptor (P20288 whole entry): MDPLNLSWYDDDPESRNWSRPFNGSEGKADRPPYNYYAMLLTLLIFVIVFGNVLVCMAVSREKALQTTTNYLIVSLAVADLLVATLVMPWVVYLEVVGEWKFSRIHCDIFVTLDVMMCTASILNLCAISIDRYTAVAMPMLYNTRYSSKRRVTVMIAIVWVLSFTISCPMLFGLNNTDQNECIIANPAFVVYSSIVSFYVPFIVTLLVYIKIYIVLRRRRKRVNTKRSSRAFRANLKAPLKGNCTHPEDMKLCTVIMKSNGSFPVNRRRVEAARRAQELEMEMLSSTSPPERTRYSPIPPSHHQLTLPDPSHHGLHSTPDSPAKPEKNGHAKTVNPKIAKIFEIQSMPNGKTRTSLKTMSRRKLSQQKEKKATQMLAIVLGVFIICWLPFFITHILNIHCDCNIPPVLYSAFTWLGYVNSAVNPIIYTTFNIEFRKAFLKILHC

As a reminder, the IC50 is the concentration that gives 50% inhibition. A low value points to higher potency. `CCCN(CCC)CCc1ccc2[nH]c(O)nc2c1`: the IC50 at D(1A) dopamine receptor and at D(2) dopamine receptor was over 100 µM each time.
Regarding `CCCN(CCC)CCc1ccc(NC(=O)C(F)(F)F)c(NC(=O)C(F)(F)F)c1`, the half-maximal inhibitory concentration (IC50) on D(1A) dopamine receptor and on D(2) dopamine receptor was over 100 µM in each case.
As for `CCCN(CCC)CCc1ccc(NC(C)=O)c(NC(C)=O)c1`, the IC50 on D(1A) dopamine receptor and on D(2) dopamine receptor was over 100 µM in each case.
By pKa is commonly meant the negative logarithm of the acid dissociation constant. Consider `CCCN(CCC)CCc1ccc2[nH]c(S)nc2c1`, for which the IC50 on D(1A) dopamine receptor is over 100 µM; on D(2) dopamine receptor it was 1 µM. The same compound showed a pKa in data set [1] of 9.8.
As to `CCCN(CCC)CCc1ccc2nn[nH]c2c1`, the half-inhibitory concentration (IC50) on D(1A) dopamine receptor was over 100 µM; on D(2) dopamine receptor, 50 µM.
Consider `CCCN(CCC)CCc1ccc2[nH]c(=O)c(=O)[nH]c2c1`, for which the IC50 on D(1A) dopamine receptor was over 100 µM; at D(2) dopamine receptor it was 3 µM. This compound had a pKa in data set [1] of 9.5.
`NCCc1ccc(O)c(O)c1` [DOPAMINE] gave an IC50 on D(1A) dopamine receptor of 0.2 µM.
